# Patent US4472382A, “Treatment method” (Roussel Uclaf, priority 1979, dated 1984)
# Entries after “also recorded” stand apart in the source; their conditions may differ.
# What was measured:
# [1] = system: testicular steroidogensis; experiment: Inhibitory activity against testicular steroidogenesis in men in good health, single intranasal administration; type: in vivo
# Procedure: The said product was administered intranasally at a dose of 500 μg in a few drops of distilled water at 8 A.M. on the third day of the test. For 2 days prior to the treatment and for 6 days after the treatment, samples of blood were taken daily at 8 A.M., 3 P.M. and 10 P.M. On the day of administration of the LH--RH agonist, blood samples were taken at 11 A.M. and 6 P.M.
# The seric concentrations of LH and FSH were measured by radioimmuno-logic dosages with double antibodies and the antibodies for measuring LH and FSH were furnished by the National Pituitary Agency of N.I.H. in Bethesda, Md. The seric concentrations of steroids was measured by radioimmuno-logic dosages in which one ml of serum was extracted with ether and the steroids were separated on a LH-20 column before measuring with radioimmuno-logic dosages. The radioimmuno-logic dosage results were determined by a program derived from model II of Rodbard et al [Second Karolinska Symposium on Research Methods in Reproductive Endrocrinology, Diczfalusky Editor, Copenhague (1970), p. 79-103]. The statistical significance was determined by the "multiple level test" of Duncan-Kramer [Kramer, Biometrics, Vol. 12 (1956), p. 307]. The results are shown in the graphs on sheet 1 of the Figures filed herewith.
# [2] = system: testicular steriodogenosis; experiment: Inhibitory activity on testicular steroidogenesis in a patient with prostate cancer; type: in vivo, human; conditions: intranasal 500 μg twice a day
# Source text: The inhibitory activity of [D Ser (Tbu)^6, des Gly NH2^10 ] […] The results are reported in the graphs of sheet 2 of the Figures.
# ovarian steroidogenosis = experiment: Inhibitory activity on ovarian steroidogenesis in women; type: in vivo
# Procedure: The inhibitory activity of [D Ser (Tbu)^6, des Gly NH2^10 ] LH--RH ethylamide on ovarian steroidogenosis in women was determined on 6 women aged 26 to 35 years with normal and regular menstrual cycles and without prior endocrinal or gynecological problems. The study was conducted for 6 consecutive cycles consisting of 2 pretreatment cycles, 2 treatment cycles and 2 post-treatment cycles. Two drops of a solution containing 500 μg of [D Ser (Tbu)^6, des Gly NH2^10 ] LH--RH ethylamide were deposited on each nostril at 8 A.M. and 5 P.M. of a day between the 4th and 9th day after the peak of LH-day 0. Daily blood samples were taken between 4 and 6 P.M. to measure seric levels of LH, FSH, progesterone and estradiol which were determined by radioimmuno-logictests with double antibodies. The antibodies to measure LH and FSH were furnished by the National Pituitory Agency of N.I.H. of Bethesda, Md.
# Estradiol and progesterone were measured with highly specific antibodies developed against 7-(O-carboxymethyl)-oxime of estradiol and 12-(O-carboxymethyl)-oxime of progesterone, respectively [3H] 17β-estradiol and ^125 I-progesterone-12-[O-carboxymethyl)-oxime]used as tracers. The serum was extracted with benzene and the steroids were separated with a LH-20 column before the determination. The radioimmunological results were exploited by the program derived from model II of Rodbard and Lewald as in Example 1 and the statistical significance was measured by the multiple level test of Ducan-Kramer of Example 1. The results are shown in the graphs of sheets 3 to 5 of the Figures.
# [3] = men, intranasal 500 μg, 3rd day following administration
# [4] = intranasal 500 μg at 8 A.M. and 5 P.M. of one day in the luteal phase, typical subject of sheet 3
smiles,measurement,setting,value
"CCNC(=O)[C@@H]1CCCN1C(=O)[C@H](CCCNC(=N)N)NC(=O)[C@H](CC(C)C)NC(=O)[C@@H](COC(C)(C)C)NC(=O)[C@H](Cc1ccc(O)cc1)NC(=O)[C@H](CO)NC(=O)[C@H](Cc1c[nH]c2ccccc12)NC(=O)[C@H](Cc1c[nH]cn1)NC(=O)[C@@H]1CCC(=O)N1 [[D Ser (Tbu)^6, des Gly NH2^10] LH--RH ethylamide]",duration of the drop of seric levels of the steroids (testosterone and its precursors),"[1]; human, single intranasal dose of 500 μg",3 days
same,diminution of the level of testosterone,"[1]; human, single intranasal dose of 500 μg, 3rd day following administration",50%
same,level of testosterone / steroids on the fourth day after administration,"[1]; human, single intranasal dose of 500 μg, fourth day (until the 6th day)",returned to normal; also recorded: return to normal levels
same,concentration of 17-OH-progesterone relative to the initial control values,[1]; [3],40%
same,concentration of testosterone relative to the initial control values,[1]; [3],50%
same,LH and FSH plasmatic levels,"[1]; men, intranasal 500 μg, after administration",increase
same,"seric concentration of pregnenolone, 17-OH-pregnenolone, progesterone, 17-OH-progesterone, Δ5-androstene-3β,17β-diol and testosterone","[1]; men, intranasal 500 μg, on the day of treatment",increased
same,level of androgenic steroids,[2],diminution
same,level of testosterone,[2]; two weeks of treatment,stabilized at a very low level
same,"progesterone level, cycles of post-treatment, % of the control values (pretreatment cycles = 100%)",ovarian steroidogenosis; 12 cycles of post-treatment,99%
same,"progesterone level, cycles of treatment, % of the control values (pretreatment cycles = 100%)",ovarian steroidogenosis; 12 cycles of treatment,46%
same,level of progesterone reduced as compared to the controls,"ovarian steroidogenosis; 12 cycles, sheet 5, scale 13 to 127%",46%
same,"reduction of seric levels of progesterone as compared to the controls, first cycle of treatment",ovarian steroidogenosis; [4],13%
same,"reduction of seric levels of progesterone as compared to the controls, second cycle of treatment",ovarian steroidogenosis; [4],34%
same,level of seric progesterone in the 2 cycles of post-treatment,ovarian steroidogenosis; post-treatment cycles,return to normal
